Measured values from ChEMBL document CHEMBL1134005, “2-Arylindole-3-acetamides: FPP-competitive inhibitors of farnesyl protein transferase” (Bioorg Med Chem Lett, 2001).

Key:
[1] = molecular target: T1, Protein farnesyltransferase (Homo sapiens, UniProt P49354+P49356); experiment: Concentration required for the inhibitory activity against human Farnesyltransferase; assay type: protein-complex assay
[2] = molecular target: T1, Protein farnesyltransferase; experiment: Inhibition of HDJ-2 farnesylation in PSN-1 cells; assay type: functional, cell-based
[3] = molecular target: T1, Protein farnesyltransferase; experiment: (§1) Inhibition of FPP incorporation into biotinylated K-Ras-derived peptide by human farnesyl transferase; assay type: functional
[4] = molecular target: T1, Protein farnesyltransferase; experiment: as §1; assay type: functional; remark: listed apart in the source
[5] = molecular target: T1, Protein farnesyltransferase; experiment: (§2) Inhibition of FPP incorporation into biotinylated K-Ras-derived peptide by human farnesyl transferase with 5 nM ATP; assay type: functional
[6] = molecular target: T1, Protein farnesyltransferase; experiment: as §1; assay type: functional; remark: listed apart in the source
[7] = molecular target: T1, Protein farnesyltransferase; experiment: as §1; assay type: functional; remark: listed apart in the source
[8] = molecular target: T1, Protein farnesyltransferase; experiment: as §2; assay type: functional; remark: listed apart in the source
[9] = molecular target: T1, Protein farnesyltransferase; experiment: as §2; assay type: functional; remark: listed apart in the source
[10] = molecular target: T1, Protein farnesyltransferase; experiment: as §1; assay type: functional; remark: listed apart in the source
[11] = molecular target: T1, Protein farnesyltransferase; experiment: Inhibition of FPP incorporation into biotinylated K-Ras-derived peptide by human farnesyl transferase 5 nM ATP; assay type: functional
[12] = molecular target: Geranylgeranyl transferase type I (Homo sapiens, UniProt P49354+P53609); experiment: Inhibitory activity against human Geranylgeranyl transferase type I; assay type: protein-complex assay
[13] = molecular target: T1, Protein farnesyltransferase; experiment: as §2; assay type: functional; remark: listed apart in the source
[14] = molecular target: T1, Protein farnesyltransferase; experiment: Inhibition of HDJ-2 farnesylation in PSN-1 cells at without GGT1; assay type: functional, cell-based
[15] = molecular target: T1, Protein farnesyltransferase; experiment: Inhibition of K-Ras farnesylation in PSN-1 cells without GGT1; assay type: functional, cell-based
[16] = molecular target: T1, Protein farnesyltransferase; experiment: Inhibition of HDJ-2 farnesylation in PSN-1 cells with 100 nM GGT1; assay type: functional, cell-based
[17] = molecular target: T1, Protein farnesyltransferase; experiment: Inhibition of K-Ras farnesylation in PSN-1 cells with 100 nM GGT1; assay type: functional, cell-based

Row | Compound | IC50 [1] [nM] | further results
1 | CC(C)N(Cc1ccncc1)C(=O)Cc1cn(Cc2cccc(Br)c2)c2ccccc12 | 2150 | 
2 | CC(C)N(Cc1ccncc1)C(=O)Cc1cn(Cc2ccccc2Br)c2ccccc12 | 572 | 
3 | N#CCCN(C(=O)Cc1c(-c2ccccc2)[nH]c2ccccc12)C1CC1 | 123 | 
4 | CC(C)N(Cc1ccncc1)C(=O)Cc1c(-c2cccc(Cl)c2)[nH]c2ccccc12 | 172 | 
5 | O=C(Cc1c(-c2ccccc2)[nH]c2ccccc12)N(Cc1ccncc1)C1CCC1 | 160 | 
6 | CC(C#N)N(Cc1cccnc1)C(=O)Cc1c(-c2ccccc2)[nH]c2ccccc12 (stereo not given) | 380 | 
7 | CC(C)N(Cc1ccncc1)C(=O)Cc1cn(Cc2ccc(Br)cc2)c2ccccc12 | 1740 | 
8 | O=C(Cc1c(-c2ccccc2)[nH]c2ccccc12)N(Cc1cccnc1)C1CC1 | 45 | 
9 | O=C(Cc1c(-c2ccccc2)[nH]c2ccccc12)N(Cc1ccncc1)C1CCCC1 | 4000 | 
10 | CC[C@@H](C)N(Cc1ccncc1)C(=O)Cc1c(-c2ccccc2)[nH]c2ccccc12 | 4590 | 
11 | Cc1ccccc1-c1[nH]c2ccccc2c1CC(=O)N(CCC#N)C1CC1 | 712 | 
12 | O=C(Cc1c(-c2ccccc2)[nH]c2ccccc12)N(Cc1cccnc1)C1CCC1 | 44 | 
13 | O=C(Cc1c(-c2ccccc2)[nH]c2ccccc12)N(Cc1cccnc1)Cc1cccnc1 | 2730 | 
14 | CC(C)N(Cc1ccncc1)C(=O)Cc1c(-c2ccccc2)[nH]c2ccccc12 | 41 | 
15 | CCN(Cc1ccncc1)C(=O)Cc1c(-c2ccccc2)[nH]c2ccccc12 | 106 | IC50 [3]: 230 nM; IC50 [4]: 250 nM; IC50 [5]: 43 nM; IC50 [6]: 230 nM; IC50 [7]: 4000 nM; IC50 [8]: 190 nM; IC50 [9]: 65 nM; IC50 [10]: 54 nM; IC50 [11]: 20 nM; IC50 [12]: > 20000 nM; IC50 [13]: 47 nM
16 | CC(C)N(Cc1ccccn1)C(=O)Cc1c(-c2ccccc2)[nH]c2ccccc12 | 684 | 
17 | CC(C)N(Cc1cnn(C)c1)C(=O)Cc1c(-c2ccccc2)[nH]c2ccccc12 | 527 | 
18 | N#Cc1ccc(Cn2cncc2CN2CCN(C(=O)NC34CC5CC(CC(C5)C3)C4)CC2)cc1 | 517 | IC50 [12]: 0.2 nM
19 | CC(C)N(Cc1cncnc1)C(=O)Cc1c(-c2ccccc2)[nH]c2ccccc12 | 232 | 
20 | O=C(Cc1c(-c2ccccc2)[nH]c2ccccc12)N(Cc1cccnc1)C1CCCC1 | 11400 | 
21 | N#CCCN(C(=O)Cc1c(-c2ccccc2Cl)[nH]c2ccccc12)C1CC1 | 1630 | 

Continued, in another order:

Row | IC50 [1] [nM] | Compound | further results
22 | 46 | CC(C)N(Cc1ccncc1)C(=O)Cc1c(-c2ccccc2Cl)[nH]c2ccccc12 | 
23 | > 50000 | CCCCn1c(-c2ccccc2)c(CC(=O)N(Cc2ccncc2)C(C)C)c2ccccc21 | 
24 | 31 | Cc1ccccc1-c1[nH]c2ccccc2c1CC(=O)N(Cc1ccncc1)C(C)C | 
25 | 1370 | COc1ccccc1-c1[nH]c2ccccc2c1CC(=O)N(Cc1ccncc1)C(C)C | 
26 | 241 | CC(C)N(Cc1ccco1)C(=O)Cc1c(-c2ccccc2)[nH]c2ccccc12 | 
27 | 171 | O=C(Cc1c(-c2ccccc2)[nH]c2ccccc12)N(Cc1ccncc1)C1CC1 | 
28 | 14400 | CC(C)N(Cc1ccncc1)C(=O)Cc1c(-c2ccc(Br)cc2)[nH]c2ccccc12 | 
29 | 77 | CC[C@H](C)N(Cc1ccncc1)C(=O)Cc1c(-c2ccccc2)[nH]c2ccccc12 | 
30 | > 50000 | CC(C)N(Cc1ccncc1)C(=O)Cc1c[nH]c2ccccc12 | 
31 | 58 | CC(C)N(Cc1cccnc1)C(=O)Cc1c(-c2ccccc2)[nH]c2ccccc12 | 
32 | 3800 | CCn1c(-c2ccccc2)c(CC(=O)N(Cc2ccncc2)C(C)C)c2ccccc21 | 
33 | 400 | CC(C)N(Cc1cnccn1)C(=O)Cc1c(-c2ccccc2)[nH]c2ccccc12 | 
34 | 182 | Cn1c(-c2ccccc2)c(CC(=O)N(CCC#N)C2CC2)c2ccccc21 | 
35 | 1500 | CC(C)CN(Cc1ccccn1)C(=O)Cc1c(-c2ccccc2)[nH]c2ccccc12 | 
36 | 2480 | CC(C)CN(Cc1cccnc1)C(=O)Cc1c(-c2ccccc2)[nH]c2ccccc12 | 
37 | 12 | Cc1ccccc1-c1c(CC(=O)N(Cc2ccncc2)C(C)C)c2ccccc2n1C | EC50 [2]: 1060 nM
38 | 29900 | CCCn1c(-c2ccccc2)c(CC(=O)N(Cc2ccncc2)C(C)C)c2ccccc21 | 
39 | 15 | CC(C)N(Cc1ccncc1)C(=O)Cc1c(-c2ccccc2)n(C)c2ccccc12 | EC50 [14]: 1980 nM; EC50 [15]: > 30000 nM; EC50 [16]: 1000 nM; EC50 [17]: 1800 nM; EC50 [2]: 1330 nM
40 | 245 | CC(C)N(Cc1ccnn1C)C(=O)Cc1c(-c2ccccc2)[nH]c2ccccc12 | 
41 | 110 | CC(C)N(Cc1ccoc1)C(=O)Cc1c(-c2ccccc2)[nH]c2ccccc12 | 
42 | 568 | CC(C)N(Cc1ccn(C)n1)C(=O)Cc1c(-c2ccccc2)[nH]c2ccccc12 | 
